Experimental data reported in patent publication US20020052295A1, “Diacyl derivatives of propylene diamine having herbicidal activity” (priority 1999, published 2002).

What was measured:
CIRAR = test: Post-emergence herbicidal activity on CIRAR (canada thistle, seedling); assay type: in vivo, Cirsium arvense; details: post-emergence spray; lowest tested rate with 80% or greater inhibition; about 14 days after treatment
From the text: (§1) All such uses, and the biological activity enabling such uses, are embraced by the term “herbicidal” herein. Tables 15 and 16 summarize results of tests conducted as described below to determine the pre-emergence herbicidal activity, in the form of a GR80 value, of illustrative compounds of this invention. […] Where herbicidal activity was evident but 80% inhibition was not achieved at the highest rate tested (typically 1000 g/ha), an asterisk (*) is shown in the following tables. Herbicidal activity evident in the form of symptoms of phytotoxicity, in the absence of at least 80% inhibition at any rate, is indicated in the tables by “phyto”. A blank cell in the following tables indicates no herbicidal or phytotoxic response at any rate tested.
(§2) In another set of tests, the post-emergence activity of compounds of this invention was evaluated on the cool season species listed above. The following procedure was used.
(§3) A pre-prepared topsoil mixture (described above) was placed in a pot and compacted to a depth of 1.0 to 1.25 cm from the top of the pot. Seeds of each of several monocotyledonous and dicotyledonous annual plant species were placed on top of the soil The seeds were covered with a mixture of 50% topsoil and 50% Rediearth™ in sufficient quantity to level-fill the pots. The pots were then placed on a greenhouse bench and subirrigated as needed until plants growing from the seeds had emerged and reached a suitable growth stage for post-emergence treatment, typically 9 to 14 days after planting.
(§4) A known amount of each test compound dissolved or suspended in an appropriate organic solvent was diluted with a 50:50 mix of acetone and water and applied to the plants by spraying with a standard spray nozzle in a spray volume of 3,100 l/ha at a spray pressure of […] (30 psig). Control plants were not sprayed.
(§5) After treatment the plants were placed in a greenhouse with a 30/21° C. day/night temperature regime and were subsequently watered as needed for growth. Approximately 14 days after treatment, the plants were observed and herbicidal efficacy recorded as percent inhibition by comparison with control plants.

PANDI = test: Post-emergence herbicidal activity on PANDI (fall panicum); assay type: in vivo, Panicum dichotomiflorum; details: post-emergence spray; lowest tested rate with 80% or greater inhibition; about 14 days after treatment
From the text: as §1, §2, §3, §4, §5

SORHA [1] = test: Post-emergence herbicidal activity on SORHA (johnsongrass, seedling); assay type: in vivo, Sorghum halepense; details: post-emergence spray; lowest tested rate with 80% or greater inhibition; about 14 days after treatment
From the text: as §1, §2, §3, §4, §5

BRAPP [2] = test: Post-emergence herbicidal activity on BRAPP (broadleaf signalgrass); assay type: in vivo, Brachiaria platyphylla; details: post-emergence spray; lowest tested rate with 80% or greater inhibition; about 14 days after treatment
From the text: as §1, §2, §3, §4, §5

SORVU = test: Post-emergence herbicidal activity on SORVU (shattercane); assay type: in vivo, Sorghum vulgare; details: post-emergence spray; lowest tested rate with 80% or greater inhibition; about 14 days after treatment
From the text: as §1, §2, §3, §4, §5

AMARE = test: Post-emergence herbicidal activity on AMARE (redroot pigweed); assay type: in vivo, Amaranthus retroflexus; details: post-emergence spray; lowest tested rate with 80% or greater inhibition; about 14 days after treatment
From the text: as §1, §2, §3, §4, §5

ECHCG = test: Post-emergence herbicidal activity on ECHCG (barnyardgrass); assay type: in vivo, Echinochloa crus-galli; details: post-emergence spray; lowest tested rate with 80% or greater inhibition; about 14 days after treatment
From the text: as §1, §2, §3, §4, §5

ABUTH [3] = test: Post-emergence herbicidal activity on ABUTH (velvetleaf); assay type: in vivo, Abutilon theophrasti; details: post-emergence spray; lowest tested rate with 80% or greater inhibition; about 14 days after treatment
From the text: as §1, §2, §3, §4, §5

DATST = test: Post-emergence herbicidal activity on DATST (jimsonweed); assay type: in vivo, Datura stramonium; details: post-emergence spray; lowest tested rate with 80% or greater inhibition; about 14 days after treatment
From the text: as §1, §2, §3, §4, §5

PANMI = test: Post-emergence herbicidal activity on PANMI (wild proso millet); assay type: in vivo, Panicum miliaceum; details: post-emergence spray; lowest tested rate with 80% or greater inhibition; about 14 days after treatment
DIGSA = test: Post-emergence herbicidal activity on DIGSA (large crabgrass); assay type: in vivo, Digitaria sanguinalis; details: post-emergence spray; lowest tested rate with 80% or greater inhibition; about 14 days after treatment
SOLNI [4] = test: Post-emergence herbicidal activity on SOLNI (black nightshade); assay type: in vivo, Solanum nigrum; details: post-emergence spray; lowest tested rate with 80% or greater inhibition; about 14 days after treatment
From the text: as §1, §2, §3, §4, §5

POROL = test: Post-emergence herbicidal activity on POROL (common purslane; table head prints PORAL); assay type: in vivo, Portulaca oleracea; details: post-emergence spray; lowest tested rate with 80% or greater inhibition; about 14 days after treatment
From the text: as §1, §2, §3, §4, §5

CHEAL = test: Post-emergence herbicidal activity on CHEAL (common lambsquarters); assay type: in vivo, Chenopodium album; details: post-emergence spray; lowest tested rate with 80% or greater inhibition; about 14 days after treatment
From the text: as §1, §2, §3, §4, §5

ABUTH [5] = test: Pre-emergence herbicidal activity on ABUTH (velvetleaf); assay type: in vivo, Abutilon theophrasti; details: lowest tested rate giving 80% or greater inhibition, approx. 14 days after planting and treating, greenhouse
How it was run: (§6)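 GR80 from percent growth inhibition versus untreated controls, rated about 14 days after planting and pre-emergence soil-surface application. Compound applied in 50:50 acetone:water over freshly covered seeds; pots kept in greenhouse at 30/21 °C day/night.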

SORHA [6] = test: Pre-emergence herbicidal activity on SORHA (johnsongrass, seedling); assay type: in vivo, Sorghum halepense; details: lowest tested rate giving 80% or greater inhibition, approx. 14 days after planting and treating, greenhouse
How it was run: as §6

SETFA [7] = test: Pre-emergence herbicidal activity on SETFA (giant foxtail); assay type: in vivo, Setaria faberi; details: lowest tested rate giving 80% or greater inhibition, approx. 14 days after planting and treating, greenhouse
How it was run: as §6

CONAR = test: Post-emergence herbicidal activity on CONAR (field bindweed); assay type: in vivo, Convolvulus arvensis; details: post-emergence spray; lowest tested rate with 80% or greater inhibition; about 14 days after treatment
From the text: as §1, §2, §3, §4, §5

BRAPP [8] = test: Pre-emergence herbicidal activity on BRAPP (broadleaf signalgrass); assay type: in vivo, Brachiaria platyphylla; details: lowest tested rate giving 80% or greater inhibition, approx. 14 days after planting and treating, greenhouse
How it was run: as §6

SETFA [9] = test: Post-emergence herbicidal activity on SETFA (giant foxtail); assay type: in vivo, Setaria faberi; details: post-emergence spray; lowest tested rate with 80% or greater inhibition; about 14 days after treatment
From the text: as §1, §2, §3, §4, §5

SOLNI [10] = test: Pre-emergence herbicidal activity on SOLNI (black nightshade); assay type: in vivo, Solanum nigrum; details: lowest tested rate giving 80% or greater inhibition, approx. 14 days after planting and treating, greenhouse
How it was run: as §6

Row | SMILES | Post-emergence activity (GR80) PANDI (PANDI) | Post-emergence activity (GR80) SORHA (SORHA [1]) | Post-emergence activity (GR80) BRAPP (BRAPP [2]) | Post-emergence activity (GR80) SORVU (SORVU) | Post-emergence activity (GR80) AMARE (AMARE) | Post-emergence activity (GR80) ECHCG (ECHCG) | Post-emergence activity (GR80) ABUTH (ABUTH [3]) | Post-emergence activity (GR80) DATST (DATST) | Post-emergence activity (GR80) PANMI (PANMI) | Post-emergence activity (GR80) DIGSA (DIGSA) | Post-emergence activity (GR80) SOLNI (SOLNI [4]) | Post-emergence activity (GR80) PORAL (POROL) | Post-emergence activity (GR80) CHEAL (CHEAL) | also measured
1 | O=C(NCC(CO)NC(=O)c1cccc(C(F)(F)F)c1)c1cccc(C(F)(F)F)c1 (stereo not shown) [Example 11, N,N′-(3-hydroxy-1,2-propanediylbis)-3-(trifluoromethyl)benzamide] | [empty] | [empty] | [empty] | [empty] | phyto | [empty] | [empty] | phyto | [empty] | [empty] | [empty] | [empty] | [empty] | Post-emergence activity (GR80) CIRAR (CIRAR): [empty]
2 | CC(CNC(=O)c1cccc(C(F)(F)F)c1)NC(=O)c1ccccc1SCCCCl (stereo not shown) [Example 119] | [empty] | [empty] | [empty] | [empty] | phyto | [empty] | phyto | phyto | [empty] | [empty] | phyto | phyto | [empty] | Pre-emergence activity (GR80) on ABUTH (ABUTH [5]): phyto; Pre-emergence activity (GR80) on SORHA (SORHA [6]): phyto; Pre-emergence activity (GR80) on SETFA (SETFA [7]): phyto; Post-emergence activity (GR80) CONAR (CONAR): phyto; Pre-emergence activity (GR80) on BRAPP (BRAPP [8]): phyto; Post-emergence activity (GR80) SETFA (SETFA [9]): [empty]; Pre-emergence activity (GR80) on SOLNI (SOLNI [10]): 1000 g/ha
